Experiments:
5HT7 receptor = 5HT7 receptor (Homo sapiens, UniProt P34969); assay: 5HT7 agonist functionality (EC50 agonist); assay type: cell-based; conditions: screening data, agonist reference hit
[1] = biological target: T1, Cloned Human Serotonin Receptor, Subtype 7 (h5HT7), expressed in CHO cells (Homo sapiens, UniProt P34969); assay: Radioligand binding assay, [125I]LSD, cloned human 5HT7 receptor on Flashplate
T1 construct: purchased PerkinElmer 6120512; host or cells: CHO cells
Procedure: The protocol assay was essentially the recommended protocol in the Technical Data Sheet by PerkinEmer Life and Analytical Sciences. The Mass membrane protein/well was typically 12 μg and the Receptor/well was about 9-10 fmoles. The Flashplate were let equilibrate at room temperature for one hour before the addition of the components of the assay mixture. The binding buffer was: 50 mM Tris-HCl, pH 7.4, containing 10 mM MgCl2, 0.5 mM EDTA and 0.5% BSA. […] Nonspecific binding was determined with 50 μM of Clozapine. The assay volume was 25 μl. TopSeal-A were applied onto Flashplate microplates and they were incubated at room temperature for 240 minutes in darkness.

T1 sequence (P34969 whole entry): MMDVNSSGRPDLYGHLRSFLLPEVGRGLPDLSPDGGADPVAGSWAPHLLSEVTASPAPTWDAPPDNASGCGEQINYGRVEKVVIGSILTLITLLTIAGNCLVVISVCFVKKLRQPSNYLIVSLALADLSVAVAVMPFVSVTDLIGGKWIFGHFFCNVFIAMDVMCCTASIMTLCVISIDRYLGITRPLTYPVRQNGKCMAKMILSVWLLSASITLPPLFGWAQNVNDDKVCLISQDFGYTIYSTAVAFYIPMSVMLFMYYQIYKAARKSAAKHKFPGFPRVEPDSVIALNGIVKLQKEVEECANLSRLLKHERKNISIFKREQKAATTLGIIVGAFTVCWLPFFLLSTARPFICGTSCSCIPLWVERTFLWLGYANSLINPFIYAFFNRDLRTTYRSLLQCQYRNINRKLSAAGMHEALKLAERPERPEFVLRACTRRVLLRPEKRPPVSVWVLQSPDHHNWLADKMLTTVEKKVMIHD
Chain of 5HT7 receptor (P34969 whole entry): as above

| inhibition at 1 µM ([1]; compound at 10^−6 M, radioligand [125I]LSD 0.82 nM, read-out: %-Inhib. (10^−6 M)) [%] | IC50 ([1]; radioligand [125I]LSD 0.82 nM) [nM] | SMILES | EC50 (5HT7 receptor) [nM] | affinity for the 5HT7 receptor (in words) [1] |
| --- | --- | --- | --- | --- |
|  |  | COc1ccc(C(C)C)cc1CN1CCN(c2cccc3[nH]ccc23)CC1 [Ex 29, 4-(4-(5-isopropyl-2-methoxybenzyl)piperazin-1-yl)-1H-indole] | 6.62 | good affinity |
| 68.1 | 1790 | COc1ccc(C(C)C)cc1CN1CCN(C(=O)c2ccc(Br)cc2)CC1 [Ex 9, (4-bromophenyl)(4-(5-isopropyl-2-methoxybenzyl)piperazin-1-yl)methanone] |  |  |
